In patent US20260008760A1, “DIPEPTIDYL PEPTIDASE 1 INHIBITORS AND USES THEREOF” (Insmed Incorporated, priority 2024, published 2026):
Where two headings read alike, the source gives them in different places.

Assays:
human DPP1 enzyme = human DPP1 enzyme (Homo sapiens, UniProt P53634); experiment: Human DPP1 Enzyme IC50 Assay; type: biochemical; parameters: was first proteolytically processed into its mature form using recombinant human cathepsin L; purchased R&D Systems
Method in brief: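 Recombinant human DPP1, pre-activated with cathepsin L (pH 4.5), was preincubated with compound 10 min at 37 °C in MES pH 6.0, 50 mM NaCl, 5 mM DTT, 1% DMSO. Cleavage of 400 μM (final) H-Gly-Arg-AMC followed by fluorescence (350/450 nm) over 90 min at 37 °C; IC50 from four-parameter logistic fit versus no-compound control.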

DPP1 in HL-60 cells = DPP1 in HL-60 cells (Homo sapiens, UniProt P53634); experiment: DPP1 Cell IC50 assay; type: cell-based; parameters: host or cells: HL-60 cells; conditions: 60 min pre-incubation, H-Gly-Phe-AFC substrate, average of n runs
Chain of DPP1 in HL-60 cells (P53634 25-463): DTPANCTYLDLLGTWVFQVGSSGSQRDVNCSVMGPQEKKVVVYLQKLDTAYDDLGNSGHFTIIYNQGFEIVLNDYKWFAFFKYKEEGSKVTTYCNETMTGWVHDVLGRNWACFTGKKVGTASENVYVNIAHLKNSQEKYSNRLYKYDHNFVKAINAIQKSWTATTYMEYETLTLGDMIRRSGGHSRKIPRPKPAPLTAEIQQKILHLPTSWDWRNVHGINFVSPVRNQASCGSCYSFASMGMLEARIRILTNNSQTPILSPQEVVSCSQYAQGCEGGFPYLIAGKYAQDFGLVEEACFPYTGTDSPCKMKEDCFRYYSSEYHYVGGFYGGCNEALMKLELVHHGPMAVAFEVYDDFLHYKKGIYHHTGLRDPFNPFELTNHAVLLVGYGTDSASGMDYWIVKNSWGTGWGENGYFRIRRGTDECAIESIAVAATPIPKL
Method in brief: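 HL-60 cells in PBS (5×10^5 live cells per mL) pre-incubated with compound (0.5% DMSO) 60 min at 37° C, 5% CO2, then H-Gly-Phe-AFC substrate (500 μM stock) added for 30 min. Fluorescence at 400/505 nm; % inhibition vs vehicle wells, IC50 from four-parameter logistic fit.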

[1] = activated recombinant human DPP1, 400 μM H-Gly-Arg-AMC, 10 minutes pre-incubation at 37° C., pH 6.0, average of n runs, read-out: Avg. IC50 (Human DPP1 enzyme IC50 value ranges)
[2] = read-out: Avg. IC50 (DPP1 Cell IC50 value ranges)
[3] = Avg. IC50 (DPP1 Cell IC50 value ranges)

Chain of human DPP1 enzyme (P53634 25-134 limits assumed): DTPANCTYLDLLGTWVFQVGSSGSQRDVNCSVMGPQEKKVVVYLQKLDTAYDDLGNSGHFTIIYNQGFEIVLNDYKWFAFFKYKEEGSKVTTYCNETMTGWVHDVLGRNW
Chain of human DPP1 enzyme (P53634 231-394 limits assumed): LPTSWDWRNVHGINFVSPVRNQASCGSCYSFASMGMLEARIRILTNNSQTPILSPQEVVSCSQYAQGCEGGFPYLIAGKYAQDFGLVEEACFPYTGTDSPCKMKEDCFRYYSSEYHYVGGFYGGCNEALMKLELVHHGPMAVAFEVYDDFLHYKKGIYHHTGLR
Chain of human DPP1 enzyme (P53634 395-463 limits assumed): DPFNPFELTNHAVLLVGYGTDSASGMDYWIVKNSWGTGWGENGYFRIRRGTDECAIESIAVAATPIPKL

SMILES	IC50 (human DPP1 enzyme; [1])	IC50 (DPP1 in HL-60 cells; [2])	IC50 (human DPP1 enzyme)	IC50 (DPP1 in HL-60 cells; [3])
C[C@@H]1NC[C@@H](C(=O)N[C@H](C#N)Cc2ccc(-c3ccc4c(F)nn(C)c4c3)cc2)OC[C@@H]1O [Compound A160]	5 to 15 nM	1 to 2.5 nM	–	–
Cn1nc(F)c2ccc(-c3ccc(C[C@@H](C#N)NC(=O)[C@@H]4CNCC[C@@H](F)CO4)cc3)cc21 [Compound A161]	> 15 nM	> 2.5 nM	–	–
COC1CNC[C@@H](C(=O)N[C@H](C#N)Cc2ccc(-c3ccc4c(F)nn(C)c4c3)cc2F)OC1 (some centres unmarked) [Compound A164]	< 5 nM	< 1 nM	–	–
CO[C@H]1CCO[C@H](C(=O)N[C@H](C#N)Cc2ccc(-c3ccc4c(F)nn(C)c4c3)cc2F)CNC1 [Compound A165]	5 to 15 nM	1 to 2.5 nM	–	–
C[C@@H]1NC[C@@H](C(=O)N[C@H](C#N)Cc2ccc(-c3ccc4c(F)nn(C)c4c3)cc2F)OC[C@@H]1O [Compound A166]	5 to 15 nM	1 to 2.5 nM	–	–
COC1CNC[C@@H](C(=O)N[C@H](C#N)Cc2cnc(-c3ccc4c(F)nn(C)c4c3)s2)OC1 (some centres unmarked) [Compound A169]	< 5 nM	< 1 nM	–	–
C[C@@H]1NC[C@@H](C(=O)N[C@H](C#N)Cc2cnc(-c3ccc4c(F)nn(C)c4c3)s2)OC[C@@H]1O [Compound A171]	> 15 nM	> 2.5 nM	–	–
N#C[C@H](Cc1ccc2c(c1)OCc1ccc(C3CCNC3)cc1-2)NC(=O)[C@@H]1CNCCCO1 (stereo partly drawn) [Compound B1, (2S)—N-[(1S)-1-cyano-2-[9-(pyrrolidin-3-yl)-6H-benzo[c]chromen-3-yl]ethyl]-1,4-oxazepane-2-carboxamide]	–	–	> 15 nM	> 2.5 nM
N#Cc1ccc2c(c1)COc1c-2ccc(CC(C#N)NC(=O)[C@@H]2CNCCCO2)c1F (stereo partly drawn) [Compound B4, (2S)—N-(1-cyano-2-{8-cyano-4-fluoro-6H-benzo[c]chromen-3-yl}ethyl)-1,4-oxazepane-2-carboxamide]	–	–	> 15 nM	> 2.5 nM
N#C[C@@H](Cc1cc2c(cc1F)-c1cc(C3COC3)c(F)cc1CO2)NC(=O)[C@@H]1CNCCCCO1 [Compound B10-A]	> 15 nM	> 2.5 nM	–	–
CO[C@@H]1CCNC[C@@H](C(=O)N[C@H](C#N)Cc2cc3c(cc2F)-c2cc(C4COC4)c(F)cc2CO3)OC1 [Compound B12, (2S,7R)—N-{1-cyano-2-[2,8-difluoro-9-(oxetan-3-yl)-6H-benzo[c]chromen-3-yl]ethyl}-7-methoxy-1,4-oxazocane-2-carboxamide]	< 5 nM	1 to 2.5 nM	–	–
N#C[C@H](Cc1cc2c(cc1F)-c1ccc(F)cc1CO2)NC(=O)[C@@H]1CNCCCO1 [Compound B35]	–	–	> 15 nM	> 2.5 nM
Cn1c(=O)oc2cc3c(cc21)-c1cc(F)c(CC(C#N)NC(=O)[C@@H]2CNCCCO2)cc1OC3 (stereo partly drawn) [Compound C1, (2S)—N-(1-cyano-2-{4-fluoro-15-methyl-14-oxo-8,13-dioxa-15-azatetracyclo[8.7.0.0^{2,7}0.0^{12,16}]heptadeca-1(10),2(7),3,5,11,16-hexaen-5-yl}ethyl)-1,4-oxazepane-2-carboxamide]	< 5 nM	> 2.5 nM	–	–
Cn1c(=O)oc2cc3c(cc21)-c1cc(F)c(C[C@H](C#N)NC(=O)[C@@H]2CNCCCO2)cc1OC3 [Compound C1-A]	> 15 nM	> 2.5 nM	–	–
Cn1c(=O)oc2cc3c(cc21)-c1cc(F)c(C[C@@H](C#N)NC(=O)[C@@H]2CNCCCO2)cc1OC3 [Compound C1-B]	< 5 nM	1 to 2.5 nM	–	–
Cn1c(=O)oc2ccc3c(c21)COc1cc(C[C@@H](C#N)NC(=O)[C@@H]2CNCCCO2)c(F)cc1-3 [Compound C2-A]	> 15 nM	1 to 2.5 nM	–	–
Cn1c(=O)oc2cc3c(cc21)-c1cc(F)c(CC(C#N)NC(=O)[C@@H]2CNCCCCO2)cc1OC3 (stereo partly drawn) [Compound C5, (2S)—N-[(1S)-1-cyano-2-{4-fluoro-15-methyl-14-oxo-8,13-dioxa-15-azatetracyclo[8.7.0.0^{2,7}0.0^{12,16}]heptadeca-1(10),2,4,6,11,16-hexaen-5-yl}ethyl]-1,4-oxazocane-2-carboxamide]	< 5 nM	1 to 2.5 nM	–	–

SMILES	IC50 (human DPP1 enzyme; [1])	IC50 (DPP1 in HL-60 cells; [2])	IC50 (human DPP1 enzyme)	IC50 (DPP1 in HL-60 cells; [3])
Cc1cn2c3c(cc2c(C)n1)-c1cc(F)c(C[C@@H](C#N)NC(=O)[C@@H]2CNCCCO2)cc1OC3 [Compound C10]	> 15 nM	1 to 2.5 nM	–	–
Cn1ncc2cc3c(cc21)-c1cc(F)c(C[C@@H](C#N)NC(=O)[C@@H]2CNCCCO2)cc1OC3 [Compound C33]	< 5 nM	1 to 2.5 nM	–	–
Cn1nnc2cc3c(cc21)-c1cc(F)c(C[C@@H](C#N)NC(=O)[C@@H]2CNCCCO2)cc1OC3 [Compound C34]	< 5 nM	1 to 2.5 nM	–	–
N#C[C@H](Cc1ccc(-c2ccc(-c3nnc(N)s3)o2)cc1)NC(=O)[C@@H]1CNCCCO1 [Compound D1, (2S)—N-[(1S)-2-{4-[5-(5-amino-1,3,4-thiadiazol-2-yl)furan-2-yl]phenyl}-1-cyanoethyl]-1,4-oxazepane-2-carboxamide]	> 15 nM	> 2.5 nM	–	–
N#C[C@H](Cc1ccc(-c2csc(-c3nnc(N)o3)c2)cc1)NC(=O)[C@@H]1CNCCCO1 [Compound D2, (2S)—N-[(1S)-2-{4-[5-(5-amino-1,3,4-oxadiazol-2-yl)thiophen-3-yl]phenyl}-1-cyanoethyl]-1,4-oxazepane-2-carboxamide]	> 15 nM	> 2.5 nM	–	–
N#C[C@H](Cc1ccc(-c2cnn([C@@H]3CCOC3)c2)cc1)NC(=O)[C@@H]1CNCCCO1 [Compound D4, (2S)—N-[(1S)-1-cyano-2-(4-{1-[(3R)-oxolan-3-yl]pyrazol-4-yl}phenyl)ethyl]-1,4-oxazepane-2-carboxamide]	> 15 nM	> 2.5 nM	–	–
N#C[C@H](Cc1ccc(NC(=O)c2csc(-c3cscn3)n2)cc1)NC(=O)[C@@H]1CNCCCO1 [Compound D7, (2S)—N-[(1S)-1-cyano-2-{4-[2-(1,3-thiazol-4-yl)-1,3-thiazole-4-amido]phenyl}ethyl]-1,4-oxazepane-2-carboxamide]	> 15 nM	> 2.5 nM	–	–
CCc1sc(-c2ccc(C[C@@H](C#N)NC(=O)[C@@H]3CNCCCO3)cc2)nc1-c1cnn(C)c1 [Compound D8, (2S)—N-[(1S)-1-cyano-2-{4-[5-ethyl-4-(1-methylpyrazol-4-yl)-1,3-thiazol-2-yl]phenyl}ethyl]-1,4-oxazepane-2-carboxamide]	> 15 nM	> 2.5 nM	–	–
Cc1sc(-c2ccc(C[C@@H](C#N)NC(=O)[C@@H]3CNCCCO3)cc2)nc1-c1cc[nH]c(=O)c1 [Compound D9, (2S)—N-[(1S)-1-cyano-2-{4-[5-methyl-4-(2-oxo-1H-pyridin-4-yl)-1,3-thiazol-2-yl]phenyl}ethyl]-1,4-oxazepane-2-carboxamide]	> 15 nM	> 2.5 nM	–	–
CCCCOCCn1c(=O)oc2ccc(-c3ccc(C[C@@H](C#N)NC(=O)[C@@H]4CNC(C)C(OC)CO4)c(F)c3)cc21 (stereo partly drawn) [Compound E1, (2S)—N-[(1S)-2-{4-[3-(2-butoxyethyl)-2-oxo-1,3-benzoxazol-5-yl]-2-fluorophenyl}-1-cyanoethyl]-6-methoxy-5-methyl-1,4-oxazepane-2-carboxamide]	< 5 nM	1 to 2.5 nM	–	–
COC1CO[C@H](C(=O)N[C@H](C#N)Cc2ccc(-c3ccc4c(c3)C3(CC4)CCN(C)CC3)cc2F)CNC1C (stereo partly drawn) [Compound E6, (2S)—N-[(1S)-1-cyano-2-(2-fluoro-4-{1′-methyl-2,3-dihydrospiro[indene-1,4′-piperidin]-6-yl}phenyl)ethyl]-6-methoxy-5-methyl-1,4-oxazepane-2-carboxamide]	< 5 nM	> 2.5 nM	–	–
CO[C@H]1CCO[C@H](C(=O)N[C@H](C#N)Cc2ccc(-c3ccc(C#N)cc3)cc2)CNC1 [Compound F1, (2S,6S)—N-[(1S)-1-cyano-2-{4′-cyano-[1,1′-biphenyl]-4-yl}ethyl]-6-methoxy-1,4-oxazocane-2-carboxamide]	> 15 nM	> 2.5 nM	–	–
CCCCOCCn1c(=O)oc2ccc(-c3ccc(C[C@@H](C#N)NC(=O)[C@@H]4CNC[C@@H](OC)CCO4)cc3)cc21 [Compound F2, (2S,6S)—N-[(1S)-2-{4-[3-(2-butoxyethyl)-2-oxo-1,3-benzoxazol-5-yl]phenyl}-1-cyanoethyl]-6-methoxy-1,4-oxazocane-2-carboxamide]	> 15 nM	> 2.5 nM	–	–
CO[C@H]1CCO[C@H](C(=O)N[C@H](C#N)Cc2ccc(-c3ccc4oc(=O)n(C)c4c3)s2)CNC1 [Compound F3, (2S,6S)—N-[(1S)-1-cyano-2-[5-(3-methyl-2-oxo-1,3-benzoxazol-5-yl)thiophen-2-yl]ethyl]-6-methoxy-1,4-oxazocane-2-carboxamide]	> 15 nM	> 2.5 nM	–	–
CO[C@@H]1CCNC[C@@H](C(=O)N[C@H](C#N)Cc2ccc(-c3ccc4cnn(C)c4c3)cc2F)OC1 [Compound H7, (2S,7R)—N-[(1S)-1-cyano-2-[2-fluoro-4-(1-methylindazol-6-yl)phenyl]ethyl]-7-methoxy-1,4-oxazocane-2-carboxamide]	< 5 nM	< 1 nM	–	–
CO[C@@H]1CNC[C@@H](C(=O)N[C@H](C#N)Cc2ccc(-c3ccc4nnn(C)c4c3)cc2)OC1 [Compound H12-B]	< 5 nM	1 to 2.5 nM	–	–
N#C[C@H](Cc1ccc(-c2ccc3c(c2)C2(CCN(C4COC4)CC2)COC3)cc1)NC(=O)[C@@H]1CNCCCO1 [Compound I5]	5 to 15 nM	> 2.5 nM	–	–
